Here are results for three compounds from patent CN116462616A, “炔酰胺类化合物及其应用” (Jinan University, priority 2022, dated 2023).

The target of series [1] is T1, bovine serum albumin [牛血清蛋白] (Bos taurus, UniProt P02769). Kind of series: Covalent modification of amino acid residues of a pure protein (gel fluorescence after click chemistry). Format: binding. Particulars: 10.0 μM probe, 1 mg/mL protein, 37 °C, 3 h.
The test system of series [2] is proteins of HepG2 cells [人源肝癌细胞HepG2]. Kind of series: Covalent modification of protein amino acid residues in tumour cells (live-cell labelling, gel fluorescence). Format: cell-based, human. Particulars: HepG2, 50 μM probe, 37 °C, 3 h.
For series [3], the target named is T1, bovine serum albumin [牛血清蛋白]. The series is described as follows: Selective modification of acidic amino acid residues of a pure protein (biological mass spectrometry). Format: binding. Conditions: 100 μM, 37 °C, 0.5 h.
In the next series the test system is HepG2 cells [HepG2细胞]. Kind of series: Selective modification of acidic amino acid residues in cells (biological mass spectrometry). Format: cell-based, human. Conditions: 100 μM, 37 °C, 8 h.
In a further series the target is T2, ALDH1 (Homo sapiens, UniProt P00352).
T2 construct: 50μM分子探针YN-1和YN-4与HepG2/H3255细胞于37℃孵育5h; endogenous in cells; host or cells: HepG2/H3255
T2 sequence (P00352 1-501): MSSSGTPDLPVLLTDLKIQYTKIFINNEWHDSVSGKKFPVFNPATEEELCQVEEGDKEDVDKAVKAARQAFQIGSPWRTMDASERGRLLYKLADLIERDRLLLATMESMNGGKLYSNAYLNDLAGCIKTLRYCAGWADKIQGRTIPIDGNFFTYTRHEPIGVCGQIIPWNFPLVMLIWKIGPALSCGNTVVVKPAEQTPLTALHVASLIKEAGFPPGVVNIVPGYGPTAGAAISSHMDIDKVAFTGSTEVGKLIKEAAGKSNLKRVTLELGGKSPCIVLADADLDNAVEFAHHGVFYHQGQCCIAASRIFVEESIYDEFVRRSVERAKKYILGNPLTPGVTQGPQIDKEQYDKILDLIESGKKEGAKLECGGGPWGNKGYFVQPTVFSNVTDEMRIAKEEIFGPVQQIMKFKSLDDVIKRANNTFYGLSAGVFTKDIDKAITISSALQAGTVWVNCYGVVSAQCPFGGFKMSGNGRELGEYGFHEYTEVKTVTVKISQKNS
The series is described as follows: Pull-down and western blot, ALDH1. Format: binding. Particulars: 50 μM, HepG2/H3255 cells, 37 °C, 5 h. Background: A western blot detects proteins with antibodies after separation by electrophoresis.

Another series addresses T3, GAPDH (Homo sapiens, UniProt P04406).
T3 construct: 50μM分子探针YN-1和YN-4与HepG2/H3255细胞于37℃孵育5h; endogenous in cells; host or cells: HepG2/H3255
The series is described as follows: Pull-down and western blot, GAPDH. Format: binding. Particulars: 50 μM, HepG2/H3255 cells, 37 °C, 5 h.

The next series deals with T4, MEK2 (Homo sapiens, UniProt P36507).
T4 construct: 50μM分子探针YN-1和YN-4与HepG2/H3255细胞于37℃孵育5h; endogenous in cells; host or cells: HepG2/H3255
T4 sequence (P36507 whole entry): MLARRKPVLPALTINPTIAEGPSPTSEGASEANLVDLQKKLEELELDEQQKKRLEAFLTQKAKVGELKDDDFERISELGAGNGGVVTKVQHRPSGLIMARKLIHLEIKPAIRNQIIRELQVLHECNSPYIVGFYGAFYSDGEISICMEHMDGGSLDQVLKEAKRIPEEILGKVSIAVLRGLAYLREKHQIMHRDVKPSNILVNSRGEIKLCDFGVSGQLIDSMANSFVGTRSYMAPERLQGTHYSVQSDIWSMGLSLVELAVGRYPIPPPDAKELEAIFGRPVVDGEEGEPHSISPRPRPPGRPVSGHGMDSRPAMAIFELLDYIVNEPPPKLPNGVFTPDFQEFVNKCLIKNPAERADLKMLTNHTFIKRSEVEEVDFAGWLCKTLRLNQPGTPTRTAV
The series is described as follows: Pull-down and western blot, MEK2. Format: binding. Conditions: 50 μM, HepG2/H3255 cells, 37 °C, 5 h.

The next series concerns the target T5, ECH1 (Homo sapiens, UniProt Q13011).
T5 construct: 50μM分子探针YN-1和YN-4与HepG2/H3255细胞于37℃孵育5h; endogenous in cells; host or cells: HepG2/H3255
T5 sequence (Q13011 34-328): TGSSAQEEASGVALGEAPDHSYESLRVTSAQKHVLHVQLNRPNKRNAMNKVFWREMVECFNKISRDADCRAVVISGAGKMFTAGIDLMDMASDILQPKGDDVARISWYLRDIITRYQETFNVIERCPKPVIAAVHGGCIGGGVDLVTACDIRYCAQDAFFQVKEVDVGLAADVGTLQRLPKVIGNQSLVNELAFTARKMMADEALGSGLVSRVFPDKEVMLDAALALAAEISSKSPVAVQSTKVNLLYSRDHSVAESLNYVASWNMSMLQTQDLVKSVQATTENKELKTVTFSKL
Kind of series: Pull-down and western blot, ECH1. Format: binding. Particulars: 50 μM, HepG2/H3255 cells, 37 °C, 5 h.

T1 sequence (P02769 25-607): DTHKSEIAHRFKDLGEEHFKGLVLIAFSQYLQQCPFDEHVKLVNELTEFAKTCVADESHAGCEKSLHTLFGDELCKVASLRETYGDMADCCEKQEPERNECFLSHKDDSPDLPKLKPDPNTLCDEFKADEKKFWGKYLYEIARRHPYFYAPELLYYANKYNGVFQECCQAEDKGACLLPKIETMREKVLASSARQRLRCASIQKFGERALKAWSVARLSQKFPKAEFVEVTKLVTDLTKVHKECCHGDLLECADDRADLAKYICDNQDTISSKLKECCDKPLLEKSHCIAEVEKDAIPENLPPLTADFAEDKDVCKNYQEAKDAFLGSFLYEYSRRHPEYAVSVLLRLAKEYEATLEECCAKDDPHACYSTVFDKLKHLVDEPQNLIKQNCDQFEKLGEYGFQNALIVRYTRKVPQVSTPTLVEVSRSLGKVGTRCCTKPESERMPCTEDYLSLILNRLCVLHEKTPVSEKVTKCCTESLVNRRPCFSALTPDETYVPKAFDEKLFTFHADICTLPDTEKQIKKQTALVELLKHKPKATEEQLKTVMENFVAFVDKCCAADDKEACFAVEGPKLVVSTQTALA
T3 sequence (P04406 whole entry): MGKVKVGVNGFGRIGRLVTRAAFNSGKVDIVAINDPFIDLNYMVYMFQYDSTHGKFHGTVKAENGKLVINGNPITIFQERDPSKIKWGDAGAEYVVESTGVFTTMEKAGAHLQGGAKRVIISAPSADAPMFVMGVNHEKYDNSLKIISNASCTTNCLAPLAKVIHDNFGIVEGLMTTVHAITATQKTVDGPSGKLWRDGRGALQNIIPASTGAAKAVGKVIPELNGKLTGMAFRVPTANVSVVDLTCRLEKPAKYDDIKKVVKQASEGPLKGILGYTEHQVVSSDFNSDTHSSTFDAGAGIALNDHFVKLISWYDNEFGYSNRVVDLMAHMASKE

`C#Cc1ccc(C#CN(C)S(=O)(=O)c2ccc(C)cc2)cc1` [YN-2]: the “covalent labelling of bovine serum albumin” value in series [1] is listed as “能够共价标记牛血清蛋白”. For the same compound, the “covalent labelling of proteins at live-cell level” value (“covalent labelling of proteins” for short) in series [2] was “能够在活细胞水平共价标记蛋白”.

In the case of `C#Cc1ccc(OCc2ccc(S(=O)(=O)N(C)C#C)cc2)cc1` [YN-3], the “covalent labelling of bovine serum albumin” value in series [1] is “能够共价标记牛血清蛋白”. The “covalent labelling of proteins” value in series [2] is given as “能够在活细胞水平共价标记蛋白”.

On to `C#Cc1ccc(S(=O)(=O)N(C)C#C)cc1` [YN-1], for which, in series [1], the “covalent labelling of bovine serum albumin” value is reported as “能够共价标记牛血清蛋白”. The “covalent labelling of proteins” value in series [2] is listed as “能够在活细胞水平共价标记蛋白”. Also, the “selective modification of acidic amino acid residues (aspartic acid and glutamic acid)” value (in series [3]; with HepG2 cells [HepG2细胞]) was “可选择性修饰酸性氨基酸残基天冬氨酸残基及谷氨酸残基” in each case. Further, at ALDH1, the “targeted binding to ALDH1” value is reported as “能靶向结合”. On GAPDH, the “targeted binding to GAPDH” value is recorded as “能靶向结合”. Also, at MEK2, the “targeted binding to MEK2” value was “能靶向结合”. In addition, the “targeted binding to ECH1” value at ECH1 is “能靶向结合”.
